Compound `CC(=O)NCC1CC(c2ccc(N3CCCC3)c(F)c2)=NO1` (stereo not given) has a melting point of 141 to 143 °C. Compound `Cc1ncoc1C(=O)c1ccccc1` has a melting point of 84 to 86 °C. Work on `CCCNC(=O)C1CCCN1C(=O)OCc1ccccc1` (stereo not given) yielded a melting point of 74 to 75 °C. Compound `N#Cc1cc(-c2ccc3c(c2)C(C2CC2)(C2CC2)OC(=O)N3)cs1` has a melting point of 244 to 245 °C. `CCNC(=O)c1c([Si](C)(C)C)ccc(C#C[Si](C)(C)C)c1Cl` gave a melting point of 131 to 132 °C. Compound `COc1cc2c(cc1OC)N(C(=O)c1ccc(-c3ccccc3C(F)(F)F)c(C)c1)Cc1cccn1C2` has a melting point of 187 to 188 °C. For `NC(=S)c1c(Cl)c(-c2cccnc2)n2c1CN(C(=O)Nc1ccc(F)cc1)CC2`, the melting point was 214 to 216 °C. `Cn1cc(-c2ccc3ncn(Cc4ccc5ncccc5c4)c3n2)cn1` gave a melting point of 150 to 152 °C. For `CCc1nc2c(N)nc3cc(CCC(=O)N(C)C)ccc3c2n1CC1CCOCC1`, the melting point was 219 to 220 °C. In the case of `CC1(C)C2CC[C@]1(C)C(=O)C(C(=O)Nc1cccc([N+](=O)[O-])c1)C2=O` (stereo not given in full), the melting point is reported as 100 to 102 °C. Work on `CC1(C)Oc2cc3nonc3cc2C(NC(=O)NCCCl)C1O` (stereo not given) yielded a melting point of 178 to 180 °C. With `CN1CCC2(CC1)CN(c1ccccc1[N+](=O)[O-])c1cc(Cl)ccc12` the melting point was 130 to 131 °C. For `C(=C(c1ccccc1)c1ccccc1)c1ccc2c(c1)Cc1ccccc1-2`, the melting point was 136 to 138 °C. With `O=C(Nc1ccc(Cl)cn1)c1cc(Cl)ccc1NCC1CCN(C2CCCC2)CC1` the melting point was 170 to 171 °C. Work on `COc1cccc(C(c2cccc(OC)c2)C(Nc2nc(OC)cc(OC)n2)C(=O)O)c1` (stereo not given) yielded a melting point of 58 to 66 °C. Compound `CC(C)(O)c1ccc(-c2cnc3[nH]c(=O)n(CC4CCOCC4)c3n2)cn1` has a melting point of 207 to 209 °C. With `Cc1cc(C)cc(C(=O)c2c(C(C)C)c(=O)[nH]c(=O)n2Cc2ccc(N)cc2)c1` the melting point was 173 to 175 °C. `O=C(O)CCc1ccc(C(=O)c2c(-c3ccc(O)cc3)sc3cc(O)ccc23)cc1` gave a melting point of 244 to 248 °C. In the case of `Cc1cc2c(cc1-c1cc(C=CC(=O)O)n(C)c1)C(C)(C)CCC2(C)C`, the melting point is reported as 185 to 186 °C. In the case of `CC(=O)NC[C@H]1CN(c2ccc(N3CCC(F)(CC#N)CC3)c(F)c2)C(=O)O1`, the melting point is reported as 210 to 212 °C. Work on `CCCC(=O)c1cnc2c(OCCOC)cccc2c1Nc1ccc(F)cc1C` yielded a melting point of 124 to 125 °C. With `COc1ccc(N(C(C)=O)C2=NN(c3ccc([N+](=O)[O-])cc3)C(=O)C2)cc1` the melting point was 165 to 167 °C. `CC(C)(C)OC(=O)C(ON)c1ccccc1` (stereo not given) showed a melting point of 48.2 to 49.6 °C. With `CCCCCc1cc2c(nc(O)n2CC2CCN(S(=O)(=O)CC)CC2)c(N)n1` the melting point was 222 to 225 °C. `COc1ccc(C(=O)N2c3ccccc3C(n3c4ccccc4c4ccccc43)CC2CCCCCN(C)C(C)=O)cc1OC` (stereo not given) gave a melting point of 173 to 175 °C. In the case of `COC(=O)c1ccc(NC(=O)c2cc(C(C)C)c(C(C)C)s2)cc1O`, the melting point is reported as 180 to 181 °C. Work on `NC(=O)N(O)CCNC(=O)c1cccc(OCc2ccccc2)c1` yielded a melting point of 183 to 185 °C. Compound `Cc1ccc(O)c(Cn2c(N)nc3ccc(CNc4cccc(OC(F)(F)F)c4)cc32)n1` has a melting point of 156 °C. Compound `Cc1oc(-c2ccc(Cl)cc2)cc1C(=O)NCc1ccc2cc(OCC(=O)O)ccc2c1` has a melting point of 177 to 181 °C. Compound `O=C(O)C(=O)c1ccc(OCCCCSc2ccc3ccccc3c2)cc1` has a melting point of 113 to 115 °C. With `CCCS(=O)(=O)N(C)CCc1ccncc1` the melting point was 109 to 110 °C. Work on `COc1cc(NC(=O)Nc2ccccc2)cc(OC)n1` yielded a melting point of 190 to 192 °C. `COc1cc(OC)c2cc(-c3ccc(F)cc3)oc2c1` showed a melting point of 142 to 143 °C. In the case of `CS(=O)(=O)c1ccc(-c2[nH]c(S)nc2-c2ccc(F)cc2)cc1`, the melting point is reported as 158 to 161 °C. `C=CCc1ccc2c(c1)CCC2O` (stereo not given) showed a melting point of 54 °C. For `COc1ccc(S(=O)(=O)C(C)(Cc2ccccc2Br)C(=O)O)cc1` (stereo not given), the melting point was 93 to 96 °C. Compound `CCC(COC(=O)c1ccc(N)c(Cl)c1OC)(c1cccs1)N(C)C` (stereo not given) has a melting point of 110 to 112 °C. `O=C1NC(=O)C(Cc2ccc(O)c(C(=O)NCc3ccc(C(F)(F)F)cc3)c2)S1` (stereo not given) gave a melting point of 146 to 148 °C. `C[Si](C)(C)C1(COC(=O)Nc2ccccc2)c2ccccc2-c2ccccc21` gave a melting point of 94 to 96 °C. For `COc1ccc(-c2cc(F)c3c(c2)CC(CN)O3)cc1` (stereo not given), the melting point was > 250 °C. Compound `CC(C)(C)[Si](C)(C)O[C@H]1C=C(I)C(=O)C1` has a melting point of 38.5 °C. For `COC(=O)c1c(C)nc2cccc(C)c2c1NCc1ccc(Br)cc1`, the melting point was 150 °C. `CC(C)(C)CC(=O)N[C@H]1CC[C@H](CCN2CCN(c3nccc4c3CCO4)CC2)CC1` showed a melting point of 192 °C. Compound `CC(=O)c1ccc2c(c1)C(=O)c1ccccc1CN2` has a melting point of 206 to 207 °C. `CN(C)CCNc1ccc(O)c2c1C(=O)c1c(O)ccc(O)c1C2=O` showed a melting point of 171 to 172 °C. Compound `CC1=C(C(=O)c2ccc(C(=O)NCCC#N)cc2)C(=O)C2C=CC=CC2C1=O` (stereo not given) has a melting point of 172 to 173 °C. For `CC(=O)c1c(-c2ccc(S(C)=O)cc2)[nH]c(-c2ccncc2)c1C` (stereo not given), the melting point was 249 to 250 °C. Compound `NC(=O)COc1ccc(CN2C(=O)C3(COc4cc5c(cc43)CCO5)c3ccccc32)cc1` (stereo not given) has a melting point of 215 to 216 °C. Compound `Cc1c(CO)c2ccc(OCCCN3CCN(Cc4ccc(Cl)cc4)CC3)cc2oc1=O` has a melting point of 135 °C. In the case of `CCCCS(=O)(=O)Oc1c(C(=O)OC(C)C)sc(C(=O)OC(C)C)c1C`, the melting point is reported as 59 to 61 °C.
